Test results published in patent US20210061861A1, “D-PEPTIDIC COMPOUNDS FOR VEGF” (Reflexion Pharmaceuticals, Inc., priority 2019, published 2021).
“And” between values parts separate entries of the source, which are not always exact repeats. Equal values may be shown once. Bridges are numbered along the chain shown (N, C = ends). Where no end group is shown, it is not given here. [ ]: non-standard residue; d: D form.

How the values were obtained:
[1] = molecular target: T1, VEGF-A121 binding to VEGFR1-Fc (Homo sapiens, UniProt P15692); assay: equilibrium binding VEGF-A121/VEGFR1 blocking ELISA; format: biochemical; conditions: IC50, blocking VEGF-A binding to VEGFR1-Fc, 150 pM VEGF-A, overnight incubation
T1 construct: purchased Acro Biosystems (VEGF-A121); R&D Systems (VEGFR1-Fc) VE1-H82E7; 3516-FL-050
T1 sequence (P15692 27-147 isoform P15692-9 limits assumed): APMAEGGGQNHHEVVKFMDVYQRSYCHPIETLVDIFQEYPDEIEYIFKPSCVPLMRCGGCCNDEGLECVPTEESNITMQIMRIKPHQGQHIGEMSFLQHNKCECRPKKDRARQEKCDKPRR
Description: Biotinylated human VEGF-A121 (isoform 121) was purchased from Acro Biosystems (cat #VE1-H82E7). VEGFR-1-Fc was purchased from R&D Systems (cat #3516-FL-050).
The following day, coated wells were blocked with Super Block (Rockland) for 2 hr with shaking at room temp.
Data plotted are mean±standard deviation of triplicate measurements. IC50 values were derived from 3-parameter fits using Prism (GraphPad) and the error reported is derived from fits.

[2] = system: HUVEC cell proliferation
Description: Here, HUVEC cell proliferation is increased in the presence of recombinant VEGF-A and antagonist compounds that block VEGF-A signaling reduce HUVEC cell proliferation.

[3] = system: VEGF-A signaling through VEGFR2; assay: VEGFR2 luciferase reporter cell signaling assay (KDR/NFAT-RE HEK293); format: cell-based; conditions: 150 pM VEGF-A; read-out: IC50, inhibition of VEGFR2 signaling (luciferase)
Description: Here VEGF-A activates VEGFR2 signaling in 293 cells resulting in luciferase expression as a functional readout. Inhibition of VEGF-A signaling in this system results in a loss of luciferase signal.
Measurement of VEGF cellular signaling was performed using the VEGF Bioassay (Promega). Briefly, HEK293 cells are engineered to express VEGFR-2 coupled to a luciferase response element (KDR/NFAT-RE HEK293). VEGF signaling through VEGFR-2 mediates expression of luciferase which can be quantified using bioluminescence. […] Following incubation Bio-Glo is added to wells according to the manufacturer's protocol and relative luminescence units (RLUs) were measured on a PerkinElmer 2300 Enspire Multimode plate reader. Data plotted are mean±standard deviation of triplicate measurements. IC50 values were derived from 3-parameter fits using Prism (GraphPad) and error reported are derived from fits.

[4] = molecular target: T1, VEGF-A121 binding to VEGFR1-Fc; assay: non-equilibrium VEGF-A blocking ELISA on VEGFR1-Fc; format: biochemical; conditions: for improvement of IC50 over 11055: non-equilibrium blocking ELISA
[5] = molecular target: T2, VEGF-A (Homo sapiens, UniProt P15692); assay: SPR binding of D-peptidic compounds to L-VEGF-A; set-up: Biotinylated VEGF-A(8-109) was immobilized on a biotin CAPture chip; conditions: for affinity improvement over 11055: SPR KD ratio versus parent 11055
T2 sequence (P15692 214-315): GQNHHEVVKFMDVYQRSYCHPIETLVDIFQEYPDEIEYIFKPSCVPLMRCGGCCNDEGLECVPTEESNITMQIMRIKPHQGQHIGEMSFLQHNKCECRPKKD
Description: Surface plasmon resonance (SPR) binding measurements were carried out on a Biacore S200 (GE). Biotinylated VEGF-A(8-109) was immobilized on a biotin CAPture chip (GE) and serial dilutions of D-proteins were flowed over the chip at 30 μL/min in running buffer (10 mM Hepes, pH 7.4, 150 mM NaCl, 0.05% P20). […] All measurements were carried out at 25° C. SPR data are representative of multiple independent titrations. Kinetic fits were performed using Biacore software using a global single site binding model.

[6] = system: VEGF-A165-induced vascular leakage; assay: rabbit eye model of wet AMD, fluorescein angiography; format: in vivo; conditions: single intravitreal dose 1.0 mg
Description: FIG. 44A-44B show in vivo activity of D-protein RFX-980869 in a rabbit eye model of wet AMD. (FIG. 44A) Representative fluorescein angiography (FA) images depicting the extent of VEGF-A165-induced vascular leakage at Day 5 and Day 26 post administration of respective drugs (control=no drug treatment). (FIG. 44B) Plots of individual FA scores at Day 5 and Day 26. Scoring is as follows: 0=major vessels straight with some tortuosity of small vessels and no dilation, 1=increased tortuosity of major vessels and some dilation, 2=leakage between major vessels and significant dilation, 3=leakage between major and minor vessels and minor vessels still visible, 4=leakage between major and minor vessels and minor vessels poorly visible or not visible. N=5 rabbits per group (10 eyes). All data is plotted as mean±SEM. (****p<0.0001, Mann-whitney test)
In the rabbit eye model for wet AMD, intravitreal challenge with exogenous VEGF-A165 induces vascular leakage of the retina that can be monitored using fluorescein angiography (FA). VEGF-A blockade can prevent the diffuse leakage of fluorescein into the eye, which serves as a measure of efficacy. […] After a single intravitreal administration of RFX-980869 at 0.25 mg or 1.0 mg per eye, rabbits were challenged with exogenous VEGF-A twice over a 1-month period (Day 2 and Day 23) and their eyes were examined three days later (Day 5 and Day 26). […]

[7] = anti-drug antibodies in serum of the MC38 tumor study; format: in vivo, mouse; conditions: Day 22 serum, low and high dose groups
Description: FIG. 45A-45D show tumor growth inhibition activity of RFX-980869 and lack of immunogenicity. […] N=6 mice per group. (FIG. 45B) Day 15 tumor volumes (*p<0.05, Mann-whitney test) (FIG. 45C) Anti-drug-antibodies from MC38 tumor study measured in Day 22 serum samples using an ELISA for antigen-specific serum IgG. (FIG. 45D) Anti-drug-antibody titers measured from Day 42 serum after subcutaneous immunization of corresponding drugs in BALB/c mice. N=5 mice per group. All data is plotted as mean±SEM.

[8] = system: MC38 colon cancer tumors; assay: MC38 syngeneic tumor model in C57BL6 mice; format: in vivo, mouse
Description: To assess the tumor growth inhibition potential of RFX-980869, the cross-reactivity of RFX-980869 with mouse VEGF-A (data not shown) was studied and used the syngeneic MC38 mouse tumor model. MC38 colon cancer tumors were established in C57BL6 mice transgenic for human PD-1, and reached 82 mm3 prior to initiation of treatment.
Female C57BL6 mice transgenic for human PD-1 (12-13 weeks) were purchased from Beijing Biocytogen Co.). […] MC38 tumor cells (1×10^6) were implanted subcutaneously in the right front flank and tumors were allowed to establish until the mean volume was 82 mm^3. Mice were randomized into treatment groups (N=6 per group) on Day 0 when treatment initiation began. […] All data is plotted as mean ±SEM.

[9] = subcutaneous immunization in BALB/c mice; conditions: Day 42 serum; 25 μg s.c. Days 0, 21, 35, adjuvant on Day 0
Description: Female BALB/c mice (6-8 weeks) were randomized into immunization groups on Day 0 (n=5 per group) Immunizations were performed on Days 0, 21, 35 by subcutaneous injection of 25 μg of antigen. Antigens were emulsified in adjuvant (TiterMax) for injection on Day 0 and administered in PBS for Days 21 and 35. Serum pre-bleeds were performed on Days 0, 21, 35 prior to immunizations. Final bleeds for max titer response were taken on Day 42.

[10] = molecular target: D-VEGF-A; assay: competitive phage ELISA, D-VEGF-A binding of L-peptidic compounds; conditions: D-VEGF-A binding activity
Description: Compounds of interest were assessed for VEGF-A binding in a competitive phage ELISA assay.

With “[dY][dH][dI][dQ][dW][dV][dC][dK][dN][dA][dK][dE][dD][dA][dI][dA][dE][dL][dK][dK][dA]G[dI][dT][dE][dP][dH][dV][dI][dS][dF][dI][dN][dH][dA][dP][dN][dC][dS][dH][dV][dN]G[dL][dK][dN][dA][dI][dL][dK][dA][dH][dA]-NH2 (disulfide 7-38) [Compound 979110, yhiqwvcknakedaiaelkkaGitephvisfinhapncshvnGlknailkaha]” as the substance, how does the IC50 [1] read?
The IC50 was 7 nM and 7.6 nM.

What about the “fold weaker than bevacizumab (Avastin)” value ([2]; HUVEC proliferation) of the same substance?
Its value is 185 fold.

What about the “potency improvement over 11055” value ([2]; HUVEC proliferation) of the same substance?
Its value is 4 fold.

What about the IC50 ([2]; read-out: IC50 for inhibition of cell proliferation in response to VEGF signaling, HUVEC, recombinant VEGF-A) of the same substance?
The IC50 was 131 nM.

What about the IC50 [3] of the same substance?
The IC50 was 6.1 nM.

What about the IC50 [4] of the same substance?
Its IC50 is 3.5 nM.

And the “improvement of IC50 over 11055” value [4]?
Its value is 14.8 fold.

And the “improvement of IC50 over 11055” value ([4]; listed as RFX-979110)?
Its value is 15 fold.

What about the “affinity improvement over 11055” value [5] of the same substance?
The value was roughly 10 fold.

What about the “affinity improvement over 11055” value ([5]; listed as RFX-979110) of the same substance?
Its value is 19 fold.

What about the Kd ([5]; VEGF-A binding affinity (KD) measured by SPR, running text and figure legends, L-VEGF-A) of the same substance?
Its Kd is 3.6 nM and 2.3 nM.

Which “vascular leakage at Day 26” value [6] does the source give for aflibercept here?
The value was “completely blocked vascular leakage”.

For nivolumab, which “anti-drug-antibodies, antigen-specific serum IgG titer” value [7] is on record?
Its value is “saturating levels of IgG titer”.

And the “tumor growth versus vehicle control group” value ([8]; 1 mg/kg biweekly, i.p.)?
Its value is “failed to show tumor growth inhibition”.

What about the “MC38 tumor growth curves” value ([8]; FIG. 45A, over both dose levels) of the same substance?
The value was “dose-dependent efficacy”.

And the tumor growth inhibition ([8]; day 15, 3 mg/kg biweekly)?
Its tumor growth inhibition is 48%.

What about the “anti-drug-antibody IgG titer after immunization” value [9] of the same substance?
The value was “strong IgG titers”.

For “tidqwllknakedaiaelkkcGitephvisfinhapyvshvnGlkanilkaha [Compound 1.1.1]”, which IC50 [10] is on record?
Its IC50 is 20 to 34 nM.
